According to ChEMBL document CHEMBL5303573, “Mapping human microbiome drug metabolism by gut bacteria and their genes” (Nature, 2019):

Legend:
[1] = The drug is tested on Edwardsiella tarda strain: ATCC23685 for biotransformation. The drug concentrations were measured before and after a 12-h incubation by liquid-chromatography-coupled mass spectrometry (LC–MS); conditions: 2 µM
[2] = parabacteroides johnsonii, 12 h, 2 µM
Description: The drug is tested on Parabacteroides johnsonii strain: DSM18315 for biotransformation. The drug concentrations were measured before and after a 12-h incubation by liquid-chromatography-coupled mass spectrometry (LC–MS)

[3] = The drug is tested on Bacteroides caccae strain: ATCC43185 for biotransformation. The drug concentrations were measured before and after a 12-h incubation by liquid-chromatography-coupled mass spectrometry (LC–MS); conditions: 2 µM
[4] = The drug is tested on Bacteroides ovatus strain: ATCC8483 for biotransformation. The drug concentrations were measured before and after a 12-h incubation by liquid-chromatography-coupled mass spectrometry (LC–MS); conditions: 2 µM
[5] = The drug is tested on Blautia hansenii strain: DSM20583 for biotransformation. The drug concentrations were measured before and after a 12-h incubation by liquid-chromatography-coupled mass spectrometry (LC–MS); conditions: 2 µM
[6] = The drug is tested on Ruminococcus gnavus strain: ATCC29149 for biotransformation. The drug concentrations were measured before and after a 12-h incubation by liquid-chromatography-coupled mass spectrometry (LC–MS); conditions: mediterraneibacter gnavus, 2 µM
[7] = The drug is tested on Bacteroides sp. WH2 strain: WH2 for biotransformation. The drug concentrations were measured before and after a 12-h incubation by liquid-chromatography-coupled mass spectrometry (LC–MS); conditions: bacteroides sp. wh2, 12 h, 2 µM
[8] = bacteroides fragilis, 12 h, 2 µM
Description: The drug is tested on Bacteroides fragilis strain: DS-208 for biotransformation. The drug concentrations were measured before and after a 12-h incubation by liquid-chromatography-coupled mass spectrometry (LC–MS)

[9] = bacteroides thetaiotaomicron, 12 h, 2 µM
Description: The drug is tested on Bacteroides thetaiotaomicron strain: VPI-5482 for biotransformation. The drug concentrations were measured before and after a 12-h incubation by liquid-chromatography-coupled mass spectrometry (LC–MS)

[10] = The drug is tested on Enterococcus faecalis strain: V583 for biotransformation. The drug concentrations were measured before and after a 12-h incubation by liquid-chromatography-coupled mass spectrometry (LC–MS); conditions: 2 µM
[11] = The drug is tested on Odoribacter splanchnicus strain: fecal isolate for biotransformation. The drug concentrations were measured before and after a 12-h incubation by liquid-chromatography-coupled mass spectrometry (LC–MS); conditions: 2 µM
[12] = The drug is tested on Collinsella aerofaciens strain: ATCC25986 for biotransformation. The drug concentrations were measured before and after a 12-h incubation by liquid-chromatography-coupled mass spectrometry (LC–MS); conditions: 2 µM
[13] = The drug is tested on Dorea formicigenerans strain: ATCC27755 for biotransformation. The drug concentrations were measured before and after a 12-h incubation by liquid-chromatography-coupled mass spectrometry (LC–MS); conditions: 2 µM
[14] = bacteroides stercoris, 12 h, 2 µM
Description: The drug is tested on Bacteroides stercoris strain: ATCC43183 for biotransformation. The drug concentrations were measured before and after a 12-h incubation by liquid-chromatography-coupled mass spectrometry (LC–MS)

[15] = The drug is tested on Bacteroides vulgatus strain: ATCC8482 for biotransformation. The drug concentrations were measured before and after a 12-h incubation by liquid-chromatography-coupled mass spectrometry (LC–MS); conditions: phocaeicola vulgatus, 2 µM
[16] = The drug is tested on Bacteroides finegoldii strain: DSM17565 for biotransformation. The drug concentrations were measured before and after a 12-h incubation by liquid-chromatography-coupled mass spectrometry (LC–MS); conditions: 2 µM
[17] = The drug is tested on Clostridium scindens strain: ATCC35704 for biotransformation. The drug concentrations were measured before and after a 12-h incubation by liquid-chromatography-coupled mass spectrometry (LC–MS); conditions: 2 µM
[18] = limosilactobacillus reuteri cf48-3a, 12 h, 2 µM
Description: The drug is tested on Lactobacillus reuteri CF48-3A strain: BEI HM-102 for biotransformation. The drug concentrations were measured before and after a 12-h incubation by liquid-chromatography-coupled mass spectrometry (LC–MS)

[19] = The drug is tested on Bifidobacterium breve strain: DSM20213 for biotransformation. The drug concentrations were measured before and after a 12-h incubation by liquid-chromatography-coupled mass spectrometry (LC–MS); conditions: 2 µM
[20] = bacteroides thetaiotaomicron, 12 h, 2 µM; remark: listed apart in the source
Description: The drug is tested on Bacteroides thetaiotaomicron strain: 7330 for biotransformation. The drug concentrations were measured before and after a 12-h incubation by liquid-chromatography-coupled mass spectrometry (LC–MS)

SMILES	Bacterial Biotransformation [1]	Bacterial Biotransformation [2]	Bacterial Biotransformation [3]	Bacterial Biotransformation [4]	Bacterial Biotransformation [5]	Bacterial Biotransformation [6]	Bacterial Biotransformation [7]	Bacterial Biotransformation [8]	Bacterial Biotransformation [9]	Bacterial Biotransformation [10]	Bacterial Biotransformation [11]	Bacterial Biotransformation [12]	Bacterial Biotransformation [13]	Bacterial Biotransformation [14]	Bacterial Biotransformation [15]	Bacterial Biotransformation [16]	Bacterial Biotransformation [17]	Bacterial Biotransformation [18]	Bacterial Biotransformation [19]	Bacterial Biotransformation [20]
N=C(N)NC(=O)Cc1c(Cl)cccc1Cl [GUANFACINE]	Compound NOT metabolized	Compound NOT metabolized	Compound NOT metabolized	Compound NOT metabolized	Compound NOT metabolized	Compound NOT metabolized	Compound NOT metabolized	Compound NOT metabolized	Compound NOT metabolized	Compound NOT metabolized	Compound NOT metabolized	Compound NOT metabolized	Compound NOT metabolized	Compound NOT metabolized	Compound NOT metabolized	Compound NOT metabolized	–	–	–	–
CCCCc1nc(Cl)c(CO)n1Cc1ccc(-c2ccccc2-c2nn[nH]n2)cc1 [LOSARTAN]	Compound metabolized	Compound metabolized	–	Compound NOT metabolized	Compound NOT metabolized	Compound NOT metabolized	Compound NOT metabolized	–	–	Compound NOT metabolized	Compound metabolized	Compound NOT metabolized	Compound NOT metabolized	–	Compound metabolized	Compound metabolized	Compound NOT metabolized	Compound NOT metabolized	–	–
COc1cc2nc(N3CCN(C(=O)c4ccco4)CC3)nc(N)c2cc1OC [PRAZOSIN]	Compound NOT metabolized	Compound NOT metabolized	Compound NOT metabolized	Compound NOT metabolized	Compound NOT metabolized	–	Compound NOT metabolized	Compound NOT metabolized	Compound NOT metabolized	Compound NOT metabolized	Compound NOT metabolized	Compound NOT metabolized	Compound NOT metabolized	Compound NOT metabolized	–	Compound NOT metabolized	–	Compound NOT metabolized	Compound NOT metabolized	Compound NOT metabolized
CC(CN1c2ccccc2Sc2ccccc21)N(C)C (stereo not given) [PROMETHAZINE]	Compound NOT metabolized	Compound NOT metabolized	Compound NOT metabolized	Compound NOT metabolized	Compound NOT metabolized	Compound NOT metabolized	Compound NOT metabolized	Compound NOT metabolized	Compound NOT metabolized	Compound NOT metabolized	–	Compound NOT metabolized	Compound NOT metabolized	Compound NOT metabolized	Compound NOT metabolized	Compound NOT metabolized	Compound NOT metabolized	Compound NOT metabolized	Compound NOT metabolized	–
CC(N)C12CC3CC(CC(C3)C1)C2 (stereo not given) [RIMANTADINE]	Compound NOT metabolized	Compound NOT metabolized	Compound NOT metabolized	Compound NOT metabolized	Compound NOT metabolized	Compound NOT metabolized	Compound NOT metabolized	Compound NOT metabolized	Compound NOT metabolized	Compound NOT metabolized	Compound NOT metabolized	Compound NOT metabolized	Compound NOT metabolized	Compound NOT metabolized	–	Compound NOT metabolized	Compound NOT metabolized	Compound NOT metabolized	Compound NOT metabolized	Compound NOT metabolized
CCN1CCCC1CNC(=O)c1cc(S(N)(=O)=O)ccc1OC (stereo not given) [SULPIRIDE]	Compound NOT metabolized	Compound NOT metabolized	Compound NOT metabolized	Compound NOT metabolized	Compound NOT metabolized	Compound NOT metabolized	Compound NOT metabolized	–	–	Compound NOT metabolized	–	Compound NOT metabolized	Compound NOT metabolized	Compound NOT metabolized	Compound NOT metabolized	Compound NOT metabolized	Compound NOT metabolized	Compound NOT metabolized	Compound NOT metabolized	–
CNS(=O)(=O)Cc1ccc2[nH]cc(CCN(C)C)c2c1.O=C(O)CCC(=O)O [SUMATRIPTAN SUCCINATE]	Compound NOT metabolized	Compound NOT metabolized	Compound NOT metabolized	–	Compound NOT metabolized	Compound NOT metabolized	Compound NOT metabolized	Compound metabolized	Compound metabolized	Compound NOT metabolized	Compound NOT metabolized	Compound NOT metabolized	Compound NOT metabolized	–	Compound NOT metabolized	Compound NOT metabolized	Compound NOT metabolized	Compound NOT metabolized	Compound NOT metabolized	–
COc1ccc(CN2CCNCC2)c(OC)c1OC.Cl.Cl [TRIMETAZIDINE DIHYDROCHLORIDE]	Compound NOT metabolized	Compound metabolized	Compound NOT metabolized	Compound metabolized	Compound NOT metabolized	Compound NOT metabolized	Compound metabolized	–	Compound metabolized	Compound NOT metabolized	–	Compound NOT metabolized	Compound NOT metabolized	Compound metabolized	Compound metabolized	Compound NOT metabolized	Compound NOT metabolized	Compound NOT metabolized	Compound NOT metabolized	Compound metabolized
